Measured values published in patent US10160726B2, “Quinolone derivatives as antibacterials” (priority 2014, dated 2018).
In brackets after ≈: the same amount, converted by molar mass. Structures can show the parent of a compound that is named as a salt. Where two headings read alike, the source gives them in different places.

Experiments:
[1] = system: S. aureus NB01006-AVR005 (gyrA S84L, grlA S80F, grlB E471K); experiment: microbe, parasite or virus in culture; format: cell-based; details: Staphylococcus aureus, 20 h, read-out: Antibacterial activity (MIC) NB01006-AVR005
[2] = molecular target: E. coli DNA gyrase (GyrA-B) (Escherichia coli, UniProt P0AES4); experiment: Supercoiling assay of E. coli gyrase; format: biochemical
Protocol: Method 1: Supercoiling Assay of E. Coli Gyrase
Enzymatic activity of E. coli DNA gyrase reconstituted from its purified subunits was assessed by monitoring the introduction of supercoils into the relaxed plasmid pHOT-1 (TopoGEN, TG2035-3). To form the functional gyrase A2B2 heterotetrameric enzyme, equal molar concentrations of the GyrA and GyrB subunits were combined at high protein concentration (500 nM) and incubated on ice for 1 hour prior to assay start in reaction buffer without ATP or the pHOT-1 plasmid. The reaction mixture (25 μl) contained 10 nM enzyme, 10 ng/μl pHOT-1, 1 mM ATP, 35 mM Tris-HCl pH 7.5, 24 mM KCl, 4 mM MgCl2, 2 mM DTT, 1.8 mM spermidine, 6.5% glycerol, and 100 μg/ml bovine serum albumin. The reaction was carried out at 37° C. for 90 minutes and terminated by the addition of 2.5 μl of 10× stop solution (0.9% SDS, 50% glycerol, 0.05% bromophenol blue). […] Gels were stained with ethidium bromide (0.5 μg/ml) for 30 minutes and destained in water for 20 minutes. All gels were analyzed using the BIO-RAD ChemiDocTm XRS+ with Image Lab 3.0 software. The 50% inhibition concentration (IC50) was determined as being the compound concentration at which the supercoiled band was reduced by 50% from the DMSO drug free control (Microsoft Excel 2010 IDBS XLfit, GraftPad Prism 6).

[3] = system: P. aeruginosa NB52023 (efflux deficient K1542, ΔmexX ΔmexB); experiment: microbe, parasite or virus in culture; format: cell-based; details: Pseudomonas aeruginosa, 20 h, read-out: Antibacterial activity (MIC) NB52023
[4] = system: E. coli NB27177 (efflux deficient CGSC 11430, ΔtolC732::kan); experiment: microbe, parasite or virus in culture; format: cell-based; details: Escherichia coli, 20 h, read-out: Antibacterial activity (MIC) NB27177
[5] = molecular target: E. coli DNA topoisomerase IV (Topo IV, ParC-E) (Escherichia coli, UniProt P0AFI2); experiment: Decatenation assay of E. coli Topo IV; format: biochemical
Protocol: Method 2: Decatenation Assay of E. Coli Topo IV
Enzymatic activity of the E. coli DNA topoisomerase IV (Topo IV) reconstituted from its purified subunits was monitored by the decatenation of kinetoplast DNA into minicircles (kDNA, TopoGEN, TG2013-3). To form the functional Topo IV C2E2 heterotetrameric enzyme, equal molar concentrations of the ParC and ParE subunits were combined at high protein concentration (500 nM) and incubated on ice for 1 hour prior to assay start in reaction buffer without ATP or the kDNA. […] The reaction was carried out at 37° C. for 2 hours and terminated by the addition of 2.5 μl of 10× stop solution (0.9% SDS, 50% glycerol, 0.05% bromophenol blue). […] Gels were stained with ethidium bromide (0.5 μg/ml) for 30 minutes and distained in water for 20 minutes. All gels were analyzed using the BIO-RAD ChemiDoc™ XRS^+ with Image Lab 3.0 software. The 50% inhibitor concentration (IC50) was determined as being the compound concentration at which the presence of the kDNA minicircles in the gel was reduced by 50% from the DMSO drug free control (Microsoft Excel 2010 IDBS XLfit, Graph Pad Prism 6).

[6] = system: E. coli ATCC 25922 (NB27001); experiment: MIC, broth microdilution (CLSI); format: cell-based; details: Escherichia coli, ATCC25922; E. coli ATCC 25922; 35° C., 20 hours; read-out: Antibacterial activity (MIC) NB27001
[7] = system: P. aeruginosa NB52019 (wild-type PAO1); experiment: MIC, broth microdilution (CLSI); format: cell-based; details: Pseudomonas aeruginosa, read-out: Antibacterial activity (MIC) NB52019
[8] = system: P. aeruginosa NB52023-CDK0006 (gyrA T83I, parC S87L); experiment: microbe, parasite or virus in culture; format: cell-based; details: Pseudomonas aeruginosa, 20 h, read-out: Antibacterial activity (MIC) NB52023-CDK0006
[9] = system: S. aureus ATCC 29213 (NB01001); experiment: MIC, broth microdilution (CLSI); format: cell-based; details: Staphylococcus aureus, ATCC29213; S. aureus ATCC 29213; 35° C., 20 hours; read-out: Antibacterial activity (MIC) NB01001
[10] = P. aeruginosa wild-type PAO1, 35° C., 20 hours
[11] = supercoiling activity of E. coli gyrase (GyrA-B), read-out: GyrA-B IC50 (Enzyme)
[12] = decatenation activity of E. coli topoIV (ParC-E), read-out: ParC-E IC50 (Enzyme)

Sequence of E. coli DNA topoisomerase IV (Topo IV, ParC-E) (P0AFI2 whole entry): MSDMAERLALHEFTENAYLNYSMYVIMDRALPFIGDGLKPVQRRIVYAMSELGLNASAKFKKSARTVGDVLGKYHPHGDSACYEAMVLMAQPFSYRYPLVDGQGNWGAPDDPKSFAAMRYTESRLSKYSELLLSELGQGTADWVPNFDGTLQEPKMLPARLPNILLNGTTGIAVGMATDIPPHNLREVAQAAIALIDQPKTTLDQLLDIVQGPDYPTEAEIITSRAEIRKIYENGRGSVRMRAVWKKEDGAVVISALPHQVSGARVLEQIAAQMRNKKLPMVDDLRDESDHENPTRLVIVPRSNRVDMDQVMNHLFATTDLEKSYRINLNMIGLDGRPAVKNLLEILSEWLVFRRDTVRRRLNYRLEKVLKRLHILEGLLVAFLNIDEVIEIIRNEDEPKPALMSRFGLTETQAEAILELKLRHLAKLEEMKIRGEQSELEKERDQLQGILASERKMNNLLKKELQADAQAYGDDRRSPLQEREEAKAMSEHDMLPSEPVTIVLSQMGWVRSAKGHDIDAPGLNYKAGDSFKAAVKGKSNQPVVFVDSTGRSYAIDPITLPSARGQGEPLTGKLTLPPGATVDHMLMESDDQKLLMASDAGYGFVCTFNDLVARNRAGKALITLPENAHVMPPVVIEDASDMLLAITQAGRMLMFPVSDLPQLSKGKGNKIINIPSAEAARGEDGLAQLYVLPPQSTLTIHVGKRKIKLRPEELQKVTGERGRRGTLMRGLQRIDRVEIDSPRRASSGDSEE
Sequence of E. coli DNA topoisomerase IV (Topo IV, ParC-E) (P20083 whole entry, further chain): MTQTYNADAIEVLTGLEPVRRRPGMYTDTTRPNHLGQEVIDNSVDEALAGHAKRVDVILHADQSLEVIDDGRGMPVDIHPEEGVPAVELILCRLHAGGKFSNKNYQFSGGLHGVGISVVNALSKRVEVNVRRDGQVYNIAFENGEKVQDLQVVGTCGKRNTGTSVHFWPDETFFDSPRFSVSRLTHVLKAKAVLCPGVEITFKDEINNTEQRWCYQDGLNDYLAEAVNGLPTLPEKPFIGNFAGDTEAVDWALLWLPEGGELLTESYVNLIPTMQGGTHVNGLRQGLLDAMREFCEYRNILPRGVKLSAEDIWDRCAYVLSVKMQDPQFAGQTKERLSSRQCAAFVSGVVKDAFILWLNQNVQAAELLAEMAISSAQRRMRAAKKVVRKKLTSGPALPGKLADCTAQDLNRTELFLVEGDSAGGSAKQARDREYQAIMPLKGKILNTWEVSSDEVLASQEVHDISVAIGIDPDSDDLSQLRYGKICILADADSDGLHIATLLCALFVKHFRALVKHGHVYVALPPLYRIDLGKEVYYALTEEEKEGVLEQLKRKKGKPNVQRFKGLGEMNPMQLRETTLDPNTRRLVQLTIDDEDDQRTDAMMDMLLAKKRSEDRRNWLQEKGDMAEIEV
Sequence of E. coli DNA gyrase (GyrA-B) (P0AES4 whole entry): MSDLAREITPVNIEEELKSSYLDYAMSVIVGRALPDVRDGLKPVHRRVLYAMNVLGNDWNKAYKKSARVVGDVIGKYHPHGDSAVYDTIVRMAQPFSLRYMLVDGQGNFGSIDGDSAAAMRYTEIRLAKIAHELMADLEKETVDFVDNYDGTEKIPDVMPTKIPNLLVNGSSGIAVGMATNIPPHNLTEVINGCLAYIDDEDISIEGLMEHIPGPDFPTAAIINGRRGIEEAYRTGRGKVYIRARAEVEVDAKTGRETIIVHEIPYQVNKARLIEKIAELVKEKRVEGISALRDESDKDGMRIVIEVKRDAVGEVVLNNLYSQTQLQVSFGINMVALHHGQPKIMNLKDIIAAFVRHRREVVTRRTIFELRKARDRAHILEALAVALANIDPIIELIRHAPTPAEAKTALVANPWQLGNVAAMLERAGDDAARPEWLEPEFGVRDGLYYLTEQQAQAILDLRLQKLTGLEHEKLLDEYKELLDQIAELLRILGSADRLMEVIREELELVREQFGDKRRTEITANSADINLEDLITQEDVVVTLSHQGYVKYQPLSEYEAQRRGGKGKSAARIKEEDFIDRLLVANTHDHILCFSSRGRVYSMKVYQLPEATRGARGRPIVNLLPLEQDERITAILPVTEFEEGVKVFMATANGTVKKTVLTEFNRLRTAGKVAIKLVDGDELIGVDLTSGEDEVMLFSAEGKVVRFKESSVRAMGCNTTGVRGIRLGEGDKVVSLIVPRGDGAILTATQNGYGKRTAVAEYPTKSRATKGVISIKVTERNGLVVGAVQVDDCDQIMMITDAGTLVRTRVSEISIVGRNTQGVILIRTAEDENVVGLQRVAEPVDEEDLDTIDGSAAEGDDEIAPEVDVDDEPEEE

SMILES | MIC [1] [µg/mL] | IC50 [2] [nM] | MIC [3] [µg/mL] | MIC [4] [µg/mL] | IC50 [5] [nM] | MIC [6] [µg/mL] | MIC [7, 10] [µg/mL] | MIC [8] [µg/mL] | MIC [9] [µg/mL] | IC50 [2, 11] [nM] | IC50 [5, 12] [nM] | MIC ([7]; PAO1, 20 h) [µg/mL]
Cc1c(N2CC[C@@H]([C@H](C)N)C2)c(F)cc2ccc(=O)n(C3CC3)c12.Cl [Example 9.1, 7-((R)-3-((S)-1-aminoethyl)pyrrolidin-1-yl)-1-cyclopropyl-6-fluoro-8-methylquinolin-2(1H)-one hydrochloride salt] | 0.06 | 1300 | 4 | < 0.03 | 9910 | 1 | 16 | 8 | 0.06 |  |  | 
Cc1c(N2CCNCC2)c(F)cc2ccc(=O)n(C3CC3)c12 [Example 9.3, 1-Cyclopropyl-6-fluoro-8-methyl-7-(piperazin-1-yl)quinolin-2(1H)-one] | 16 (≈ 53.1 µM) | 11900 | 16 (≈ 53.1 µM) | 0.25 (≈ 0.83 µM) | > 100000 | 4 (≈ 13.3 µM) | 32 (≈ 106 µM) | 16 (≈ 53.1 µM) | 16 (≈ 53.1 µM) |  |  | 
Cc1c(-c2ccc(N)nc2)c(F)cc2ccc(=O)n(C3CC3)c12 [Example 10, 7-(6-Aminopyridin-3-yl)-1-cyclopropyl-6-fluoro-8-methylquinolin-2(1H)-one] | 0.25 (≈ 0.808 µM) |  | 4 (≈ 12.9 µM) | < 0.03 |  | 4 (≈ 12.9 µM) |  | 8 (≈ 25.9 µM) | 0.25 (≈ 0.808 µM) | 1200 | 1930 | > 32
C#Cc1cc(=O)n(C2CC2)c2c(C)c(N3CC[C@@H]([C@H](C)N)C3)c(F)cc12 [Example 25, 7-((R)-3-((S)-1-aminoethyl)pyrrolidin-1-yl)-1-cyclopropyl-4-ethynyl-6-fluoro-8-methylquinolin-2(1H)-one] | < 0.03 |  | 2 (≈ 5.66 µM) | 0.06 (≈ 0.17 µM) |  | 4 (≈ 11.3 µM) |  | 4 (≈ 11.3 µM) | 0.06 (≈ 0.17 µM) | 1030 | 6460 | 8 (≈ 22.6 µM)
Cc1c(N2CC[C@@H]([C@H](C)N)C2)c(F)cc2c(C#N)cc(=O)n(C3CC3)c12 [Example 27, 7-((R)-3-((S)-1-aminoethyl)pyrrolidin-1-yl)-1-cyclopropyl-6-fluoro-8-methyl-2-oxo-1,2-dihydroquinoline-4-carbonitrile] | < 0.03 |  | 1 (≈ 2.82 µM) | < 0.03 |  | 1 (≈ 2.82 µM) |  | 2 (≈ 5.64 µM) | < 0.03 | 130 | 590 | 4 (≈ 11.3 µM)
Cc1c(N2CC[C@H](N)C2)c(F)cc2c(C#N)cc(=O)n(C3CC3)c12 [Example 30, (S)-7-(3-aminopyrrolidin-1-yl)-1-cyclopropyl-6-fluoro-8-methyl-2-oxo-1,2-dihydroquinoline-4-carbonitrile] | 0.5 (≈ 1.53 µM) |  | 1 (≈ 3.06 µM) | < 0.03 |  | 1 (≈ 3.06 µM) |  | 4 (≈ 12.3 µM) | 0.5 (≈ 1.53 µM) | 980 | 14600 | 8 (≈ 24.5 µM)
Cc1c(N2CC[C@@H]([C@H](C)N)C2)c(F)cc2c(C(N)=O)cc(=O)n(C3CC3)c12 [Example 34, 7-((R)-3-((S)-1-aminoethyl)pyrrolidin-1-yl)-1-cyclopropyl-6-fluoro-8-methyl-2-oxo-1,2-dihydroquinoline-4-carboxamide] | 4 (≈ 10.7 µM) |  | 16 (≈ 43 µM) | 2 (≈ 5.37 µM) |  | 32 (≈ 85.9 µM) |  | 16 (≈ 43 µM) | 4 (≈ 10.7 µM) | 440 | 5140 | > 32
Cc1c(N2CC[C@@H]([C@H](C)N)C2)c(F)cc2c(-c3n[nH]c(=O)o3)cc(=O)n(C3CC3)c12 [Example 42, 5-(7-((R)-3-((S)-1-aminoethyl)pyrrolidin-1-yl)-1-cyclopropyl-6-fluoro-8-methyl-2-oxo-1,2-dihydroquinolin-4-yl)-1,3,4-oxadiazol-2(3H)-one] | 0.5 (≈ 1.21 µM) |  | 8 (≈ 19.3 µM) | 0.25 (≈ 0.605 µM) |  | 8 (≈ 19.3 µM) |  | 32 (≈ 77.4 µM) | 0.5 (≈ 1.21 µM) | 830 | 1860 | > 32
Cc1c(N2CC[C@@H]([C@H](C)N)C2)c(F)cc2c(C(=O)NO)cc(=O)n(C3CC3)c12 [Example 43, 7-((R)-3-((S)-1-aminoethyl)pyrrolidin-1-yl)-1-cyclopropyl-6-fluoro-N-hydroxy-8-methyl-2-oxo-1,2-dihydroquinoline-4-carboxamide] | 16 (≈ 41.2 µM) |  | > 32 | 4 (≈ 10.3 µM) |  | 32 (≈ 82.4 µM) |  | > 32 | 8 (≈ 20.6 µM) | 560 | 3350 | > 32
Cc1c(N2CC[C@@H]([C@H](C)N)C2)c(F)cc2c(CN)cc(=O)n(C3CC3)c12 [Example 45, 7-((R)-3-((S)-1-aminoethyl)pyrrolidin-1-yl)-4-(aminomethyl)-1-cyclopropyl-6-fluoro-8-methylquinolin-2(1H)-one] | 0.5 (≈ 1.39 µM) |  | 0.5 (≈ 1.39 µM) | 0.06 (≈ 0.167 µM) |  | 1 (≈ 2.79 µM) |  | 2 (≈ 5.58 µM) | 0.25 (≈ 0.697 µM) | < 100 | 240 | 2 (≈ 5.58 µM)
Cc1c(N2CC[C@@H]([C@H](C)N)C2)ccc2c(OCC3CCOCC3)cc(=O)n(C3CC3)c12 [Example 73, 7-((R)-3-((S)-1-aminoethyl)pyrrolidin-1-yl)-1-cyclopropyl-8-methyl-4-((tetrahydro-2H-pyran-4-yl)methoxy)quinolin-2(1H)-one TFA salt] | 4 |  | > 32 | 2 |  | 32 |  | > 32 | 1 | 3010 | 4970 | > 32
